Data from the supplement of paper PMC11061612.

Experiments:
Assay in all cases: Bliss excess, mean over the matrix (fraction); higher = more synergy
IST-MES1 (Mesothelioma) = system: IST-MES1 (Mesothelioma)
Outline: (§1)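 Cell lines grown in DMEM/F12 or RPMI with 10% FBS were plated in 1536-well plates and held 24 hours at 37°C, 5% CO2 before 72 hours of exposure to two-drug dose matrices, with DMSO typically at 0.2%. CellTiter-Glo 2.0 luminescence gave viability, which was converted to inhibition. Vehicle wells were set to 0 and blank wells to 1. Combination Emax is the second-highest inhibition in the matrix, and Bliss excess is the observed combination effect minus the expected EA + EB − EA·EB, where EA and EB are the single-agent effects.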

[1] = system: OAW-42 (Ovarian Carcinoma)
Outline: as §1

[2] = system: SK-PN-DW (Other Solid Carcinomas)
Outline: as §1

[3] = system: MFE-280 (Endometrial Carcinoma)
Outline: as §1

[4] = system: HEC-1 (Endometrial Carcinoma)
Outline: as §1

[5] = system: COLO-680N (Esophageal Squamous Cell Carcinoma)
Outline: as §1

[6] = system: PANC-03-27 (Pancreatic Carcinoma)
Outline: as §1

[7] = system: NCI-H23 (Lung Adenocarcinoma)
Outline: as §1

[8] = system: RCM-1 (Colorectal Carcinoma)
Outline: as §1

[9] = system: HCT-15 (Colorectal Carcinoma)
Outline: as §1

[10] = system: OPM-2 (Plasma Cell Myeloma)
Outline: as §1

[11] = system: NCI-H2342 (Lung Adenocarcinoma)
Outline: as §1

[12] = system: OVMIU (Ovarian Carcinoma)
Outline: as §1

[13] = system: RERF-GC-1B (Gastric Carcinoma)
Outline: as §1

[14] = system: NCI-H446 (Small Cell Lung Carcinoma)
Outline: as §1

[15] = system: SHP-77 (Small Cell Lung Carcinoma)
Outline: as §1

LN-229 (Glioblastoma) = system: LN-229 (Glioblastoma)
Outline: as §1

[16] = system: FADU (Head and Neck Carcinoma)
Outline: as §1

[17] = system: MKN45 (Gastric Carcinoma)
Outline: as §1

[18] = system: PC-3_[JPC-3] (Lung Adenocarcinoma)
Outline: as §1

SMILES	Bliss excess (IST-MES1 (Mesothelioma))	Bliss excess [1]	Bliss excess [2]	Bliss excess [3]	Bliss excess [4]	Bliss excess [5]	Bliss excess [6]	Bliss excess [7]	Bliss excess [8]	Bliss excess [9]	Bliss excess [10]	Bliss excess [11]	Bliss excess [12]	Bliss excess [13]	Bliss excess [14]	Bliss excess [15]	Bliss excess (LN-229 (Glioblastoma))	Bliss excess [16]	Bliss excess [17]	Bliss excess [18]
Cc1c2c(nn1C)CSCc1cc(n(C)n1)CSc1cc(c3ccccc3c1)OCCCc1c(C(=O)O)n(C)c3c-2c(Cl)ccc13 [AZD5991] + Cn1cnc2c(F)c(Nc3ccc(Br)cc3Cl)c(C(=O)NOCCO)cc21 [Selumetinib] (first compound max 1 µM, 7x7, partner max 3 µM)	-0.0466	0.0218	-0.0271	0.0226	-0.0318	-0.0091	-0.0414	0.0495	0.0025	0.0116	0.0231	-0.0673	-0.0284	0.034	0.0241	0.0623	0.0485	0.0722	-0.0643	-0.0477
CC(=O)Nc1cccc(-n2c(=O)n(C3CC3)c(=O)c3c(Nc4ccc(I)cc4F)n(C)c(=O)c(C)c32)c1 [Trametinib] + Cc1nc(-c2cn3c(n2)-c2ccc(-c4cnn(C(C)(C)C(N)=O)c4)cc2OCC3)n(C(C)C)n1 [Taselisib] (first compound max 1 µM, 7x7, partner max 10 µM)	0.0469	0.109	-0.0286	0.021	0.11	0.063	0.156	0.189	0.0117	0.139	0.165	0.0446	0.0474	0.0909	0.0967	0.107	0.19	0.213	-0.0862	0.166
Cc1nc(Nc2ncc(C(=O)Nc3c(C)cccc3Cl)s2)cc(N2CCN(CCO)CC2)n1 [Dasatinib] + CC(=O)Nc1cccc(-n2c(=O)n(C3CC3)c(=O)c3c(Nc4ccc(I)cc4F)n(C)c(=O)c(C)c32)c1 [Trametinib] (first compound max 2 µM, 7x7, partner max 1 µM)	0.0328	0.0199	-0.0292	-0.0004	0.0095	0.0389	0.0178	0.0225	0.018	0.0847	0.0108	-0.0578	-0.0298	0.0784	0.112	-0.0238	-0.0025	-0.0972	-0.0069	-0.0708
Cn1cnc2c(F)c(Nc3ccc(Br)cc3Cl)c(C(=O)NOCCO)cc21 [Selumetinib] + CCN(CCO)CCCOc1ccc2c(Nc3cc(CC(=O)Nc4cccc(F)c4)[nH]n3)ncnc2c1 [AZD2811] (first compound max 10 µM, 7x7, partner max 1 µM)	-0.0718	-0.011	-0.0744	-0.0767	-0.0402	-0.0324	0.0374	0.0194	-0.0259	0.0193	0.0243	-0.0569	-0.038	0.0288	-0.0069	0.0447	-0.0303	-0.026	0.0107	-0.0748
Cc1c2c(nn1C)CSCc1cc(n(C)n1)CSc1cc(c3ccccc3c1)OCCCc1c(C(=O)O)n(C)c3c-2c(Cl)ccc13 [AZD5991] + C[C@@H](Nc1cc(F)cc(F)c1)c1cc(C(=O)N(C)C)cc2c(=O)cc(N3CCOCC3)oc12 [AZD8186] (first compound max 1 µM, 7x7, partner max 3 µM)	-0.0524	0.0262	0.0126	0.0185	-0.0143	0.0001	-0.0432	-0.0085	-0.0102	-0.01	-0.0104	-0.0027	-0.0181	-0.0188	0.183	-0.0379	-0.0063	0.0315	-0.0777	0.0031
C[C@@H](c1ccc2nccn2c1)n1nnc2ncc(-c3cnn(C)c3)nc21 [Savolitinib] + CC1(C)CCC(CN2CCN(c3ccc(C(=O)NS(=O)(=O)c4ccc(NCC5CCOCC5)c([N+](=O)[O-])c4)c(Oc4cnc5[nH]ccc5c4)c3)CC2)=C(c2ccc(Cl)cc2)C1 [Venetoclax] (first compound max 1 µM, 7x7, partner max 1 µM)	-0.0318	-0.024	-0.0349	-0.044	-0.0423	-0.0115	-0.0176	-0.0486	-0.0416	-0.012	0.0324	-0.0631	-0.0569	-0.0303	0.0246	-0.0623	-0.0679	-0.107	-0.0664	-0.0457
COc1nnc2ccc(N3CCC(c4ccc(OCCN5CCN(C)C(=O)[C@H]5C)cc4)CC3)nn12 [AZD5153] + Cc1c2c(nn1C)CSCc1cc(n(C)n1)CSc1cc(c3ccccc3c1)OCCCc1c(C(=O)O)n(C)c3c-2c(Cl)ccc13 [AZD5991] (first compound max 1 µM, 7x7, partner max 1 µM)	-0.0031	0.0444	0.0472	-0.0473	0.0132	-0.0205	-0.0183	-0.086	-0.0512	-0.0709	-0.0062	0.0192	-0.0072	0.0602	0.0153	0.0387	0.0175	-0.0366	-0.0635	-0.0149
NC1(C(=O)N[C@@H](CCO)c2ccc(Cl)cc2)CCN(c2ncnc3[nH]ccc23)CC1 [Capivasertib] + COc1nnc2ccc(N3CCC(c4ccc(OCCN5CCN(C)C(=O)[C@H]5C)cc4)CC3)nn12 [AZD5153] (first compound max 10 µM, 7x7, partner max 1 µM)	-0.0264	0.0972	-0.0003	-0.0126	0.0143	0.0355	-0.007	-0.0038	0.0153	0.0306	-0.0129	0.0361	0.0026	0.0375	0.0021	-0.0995	-0.0313	0.032	-0.0587	-0.0186
CC1(C)CCC(CN2CCN(c3ccc(C(=O)NS(=O)(=O)c4ccc(NCC5CCOCC5)c([N+](=O)[O-])c4)c(Oc4cnc5[nH]ccc5c4)c3)CC2)=C(c2ccc(Cl)cc2)C1 [Venetoclax] + COc1cc(Nc2ncc3c(n2)-c2ccc(Cl)cc2C(c2c(F)cccc2OC)=NC3)ccc1C(=O)O [Alisertib] (first compound max 1 µM, 7x7, partner max 10 µM)	-0.0479	-0.079	-0.127	-0.0266	-0.0385	-0.0427	-0.0236	0.14	-0.0717	-0.0034	0.272	-0.0792	-0.151	-0.0274	-0.0775	0.241	-0.041	0.0252	-0.0645	-0.0502
COc1nnc2ccc(N3CCC(c4ccc(OCCN5CCN(C)C(=O)[C@H]5C)cc4)CC3)nn12 [AZD5153] + C=CCn1c(=O)c2cnc(Nc3ccc(N4CCN(C)CC4)cc3)nc2n1-c1cccc(C(C)(C)O)n1 [AZD1775] (first compound max 1 µM, partner max 1 µM)	-0.0347	-0.0338	-0.0722	-0.0779	0.0363	-0.0746	-0.152	-0.027	-0.0498	-0.0738	-0.0366	-0.0347	-0.0409	-0.114	-0.0553	0.0194	-0.039	-0.0273	-0.105	-0.06
CC(=O)c1c(C)c2cnc(Nc3ccc(N4CCNCC4)cn3)nc2n(C2CCCC2)c1=O [Palbociclib] + Cn1cnc2c(F)c(Nc3ccc(Br)cc3Cl)c(C(=O)NOCCO)cc21 [Selumetinib] (first compound max 10 µM, 7x7, partner max 10 µM)	-0.0799	-0.0555	-0.0164	-0.0255	-0.0391	-0.0207	-0.0015	-0.0057	-0.0286	0.0538	0.0343	-0.0441	-0.0097	-0.0329	-0.0689	0.0052	0.001	0.115	-0.0092	-0.0288
Cn1cnc2c(F)c(Nc3ccc(Br)cc3Cl)c(C(=O)NOCCO)cc21 [Selumetinib] + C[C@@H]1COCCN1C2=NC(=NC(=C2)C3(CC3)[S@](=N)(=O)C)C4=C5C=CNC5=NC=C4 [AZD6738] (first compound max 10 µM, 7x7, partner max 10 µM)	-0.0374	-0.0257	-0.0011	-0.0651	-0.0317	-0.0258	-0.0117	0.0385	-0.132	-0.0057	-0.0263	-0.0577	-0.0084	0.152	0.0036	0.0421	0.0078	0.0102	-0.0731	-0.0671
